Reference: PMC5686155, “Crystal structures of the mitochondrial deacylase Sirtuin 4 reveal isoform-specific acyl recognition and regulation features” (Nature Communications, 2017)
“And” between values parts separate entries of the source, which are not always exact repeats. Equal entries are not always repeated.

What was measured:
[1] = tested on: other sirtuins; conditions: cited from earlier work
[2] = target: T1, hSirt4 (Homo sapiens, UniProt Q9Y6E7); assay: HMG-FdL (Fluor-de-Lys-like) de-HMG-ylation assay; assay type: biochemical; conditions: HMG-FdL assay, 1 µM hSirt4, 500 µM HMG-FdL substrate, 500 μM NAD+, 37 °C, 20 min; fluorescence; n = 2; NADH corrected through spiking controls
T1 construct: hSirt4(25–314) in pQE30 coding for an N-terminal His6-tag; His6 (N); made in house; host or cells: Escherichia coli CodonPlus(DE3)
T1 sequence (Q9Y6E7 25-314): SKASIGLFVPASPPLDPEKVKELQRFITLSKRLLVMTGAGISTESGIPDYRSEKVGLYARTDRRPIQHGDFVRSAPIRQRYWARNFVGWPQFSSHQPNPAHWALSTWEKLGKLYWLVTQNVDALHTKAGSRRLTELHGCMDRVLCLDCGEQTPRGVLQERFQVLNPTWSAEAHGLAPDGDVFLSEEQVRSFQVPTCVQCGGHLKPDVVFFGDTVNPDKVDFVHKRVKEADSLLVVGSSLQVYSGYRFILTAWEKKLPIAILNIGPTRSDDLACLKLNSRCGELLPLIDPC
Experimental: As a convenient and complementary, fluorescence-based alternative to the coupled enzymatic assay with HMG-peptides, we established substrate and assay corresponding to the popular “Fluor-de-Lys” (FdL) deacylation assays. […] We then employed the FdL-like Sirt4 assay for studying the effects of NAM and NADH, which are not compatible with the coupled assay. […] After 20 min, developer solution (2 mM NAM and 10 mg mL^−1 trypsin) in assay buffer was added 1:1 and samples were incubated for 45 min at room temperature. Fluorescence was measures using a FluoDia T70 with excitation wavelength 365 nm and emission wavelength 465 nm.

[3] = target: T2, Sirt4 (Homo sapiens, UniProt Q9Y6E7); assay: MS-based Sirt4 inhibition assay with HMG-CPS1 substrate; assay type: biochemical; conditions: n = 2 (Supplementary Fig. 4b)
T2 construct: hSirt4(25–314) in pQE30 coding for an N-terminal His6-tag; His6 (N); made in house; host or cells: Escherichia coli CodonPlus(DE3)
T2 sequence (Q9Y6E7 25-314): T1 sequence (Q9Y6E7 25-314)
Experimental: For MS and UV analyzes of deacylation reactions, samples were prepared as described for the coupled continuous assay, stopped by mixing 1:1 with 0.5% TFA after 0 and 60 min, diluted to 20 µM peptide using 0.1% FA, and analyzed by HPLC-separation using a Shimadzu Prominence UFLC (Shimadzu, Duisburg, Germany) coupled to ESI-MS and UV detection. Samples were washed on a Piccolo Proto 200 C4 5 μm 2.5 × 0.5 mm trap column (Higgins Analytical, Mountain View, California) and subsequently subjected to a Jupiter C4 5 μm 300 Å 150 × 1 mm analytical column (Phenomenex, Torrance, California) for reversed phase separation, with 99.9% H2O, 0.1% TFA as buffer A and 99.9% ACN, 0.1% TFA as buffer B. Peptides were eluted over a 20 min gradient from 1 to 55% buffer B, followed by 1 min from 55 to 90% buffer B with 70 µL min^−1 flow-rate. UV-detection was done using a Shimadzu SPD-20A detector at 280 nm. MS analysis was performed by ESI-TOF-MS on an AB Sciex TripleTOF 5600+ mass spectrometer (Sciex, Darmstadt, Germany) with a DuoSpray Ion Source using the following settings: floating voltage of 5500 V and declustering potential of 100 with one TOF experiment summing over four time bins. We detected in a mass range from 300 to 2500 m/z. […]

[4] = target: T1, hSirt4; assay: Coupled continuous enzymatic assay monitoring NAM release from NAD+ (Sirt4 deacylation); assay type: biochemical; conditions: hSirt4 wild-type
Experimental: The seven mammalian sirtuins vary in their sequence and acyl preferences[16],[19]. […] We therefore asked whether other acyl modifications would yield deacylation efficiencies expected for a physiologically dominant Sirt4 activity.
(§1) The coupled continuous assay was performed as reported. […] Reactions were monitored in microplates at room temperature for 1 h through absorption measurements at 340 nm in a LAMBDAScan plate reader (MWG Biotech, Ebersberg, Germany).

[5] = tested on: sirtuins; conditions: cited from earlier work
From the text: All sirtuins share NAD^+ as an essential cosubstrate, but the Sirt4 nucleotide binding site differs from those of other isoforms. The Sirt4-loop tightens the entry of the C-site, where the conserved Asp145 recognizes the NAM moiety of NAD^+ [25], and its tip around Pro200 will have to rearrange slightly to allow productive NAD^+ binding (Supplementary Fig. 3c), consistent with a switch function.

[6] = tested on: xSirt4 Wild-type; assay: Coupled continuous assay, xSirt4 wild-type; assay type: biochemical, Xenopus tropicalis; conditions: HMG-CPS1 peptide substrate, n = 2
Experimental: The coupled continuous assay was performed as reported. Briefly, assays in 20 mM sodium phosphate buffer pH 7.8 contained 5 µM hSirt4 or 3–5 µM xSirt4, 0.05 mg ml^−1 nicotinamidase, 2 U ml^–1 GDH, 3.3 mM a-ketoglutarate, 0.2 mM NADPH, 10% DMSO, and NAD^+ at 2 mM or as indicated, and substrate peptide at 500 µM or as indicated. Reactions were monitored in microplates at room temperature for 1 h through absorption measurements at 340 nm in a LAMBDAScan plate reader (MWG Biotech, Ebersberg, Germany).

[7] = tested on: xSirt4 Delta 198–203; assay: Coupled continuous assay, xSirt4 variant; assay type: biochemical, Xenopus tropicalis; conditions: Sirt4 loop deletion variant (198-203), HMG-CPS1 peptide substrate; n = 2
Experimental: For xSirt4(32–315) and zSirt4(29–310) eluted from the NiNTA material, the buffer was changed to 50 mM Tris/HCl pH 7.5, 200 mM NaCl, (supplemented with 20% glycerol for xSirt4) in a HiPrep Desalting column and subjected to Senp2-proteolysis for 30 min on ice. The protein was loaded on a HisTrap HP 1 mL column (GE Healthcare) and eluted with 50 mM Tris/HCl pH 7.5, 200 mM NaCl, 30–50 mM imidazole. It was subsequently subjected to gel filtration on a Superdex 75 10/300 GL (xSirt4) or Superdex 200 10/300 GL (zSirt4) column (both GE Healthcare) in 25 mM Tris/HCl pH 7.5, 150 mM NaCl (+20 % glycerol for xSirt4), concentrated in a Microsep concentrator, flash-frozen in liquid nitrogen, and stored at −80 °C. xSirt4 single-site variants were generated using the QuickChange protocol (see Supplementary Table 1 for primer sequences) and verified by DNA sequencing, and the proteins were produced as described for wild-type xSirt4.
as §1

[8] = tested on: xSirt4; assay: Thermal denaturation shift assay; assay type: binding, Xenopus tropicalis; conditions: 3 µM xSirt4, SYPRO orange, 20 to 73 °C; n = 2
Experimental: Thermal shift assays were performed in 96-well PCR plates using 3 µM xSirt4 (32–315) or 3 µM zSirt4 (29–310) and SYPRO orange (Thermo Fisher, Waltham, MA, USA) covered with 15 µL mineral oil. Heating and fluorescence measurements were performed in a FluoDia T70 with 1 K steps from 20 to 73 °C (excitation: 465 nm, emission: 580 nm). The data were analyzed in GraFit (Erithacus Software Ltd, Horley, UK) by nonlinear fitting using a two state model.

| Compound | IC50 ([1]; other sirtuin isoforms, read-out: IC 50 on other sirtuins) | Ki ([1]; read-out: K i on other sirtuin isoforms) | IC50 [2] | IC50 [3] | K M (NAD+ titration) [4] | K M(NAD+) range reported for sirtuins [5] | K M (NAD+ titration) [6] | K M (NAD+ titration) [7] | Sirt4 stabilization in thermal denaturation shift experiments [8] |
| --- | --- | --- | --- | --- | --- | --- | --- | --- | --- |
| NC(=O)C1=CN([C@@H]2O[C@H](COP(=O)(O)OP(=O)(O)OC[C@H]3O[C@@H](n4cnc5c(N)ncnc54)[C@H](O)[C@@H]3O)[C@@H](O)[C@H]2O)C=CC1 [NADH] | 1300 to 27900 µM and ≥ 1300 µM | ≥ 700 µM | 126 ± 12 µM | 142 ± 54 µM |  |  |  |  |  |
| NC(=O)c1ccc[n+]([C@@H]2O[C@H](COP(=O)([O-])OP(=O)(O)OC[C@H]3O[C@@H](n4cnc5c(N)ncnc54)[C@H](O)[C@@H]3O)[C@@H](O)[C@H]2O)c1 [NAD^+] |  |  |  |  | 62 ± 14 µM | 14 to 600 µM | 70 ± 14 µM | 66 ± 9 µM | significant Sirt4 stabilization |
